Data taken from paper PMC2396520, “Antibody Complementarity-Determining Regions (CDRs) Can Display Differential Antimicrobial, Antiviral and Antitumor Activities” (PLoS ONE, 2008).

Tests used:
Candida albicans UP10 = type: cell-based; conditions: CDR peptides; 100 µg/mL in distilled water, 37°C, 6 h, CFU after 48–72 h, triplicate; C. albicans UP10
Description: The alanine substituted derivatives (asd), defined according to the position held by the alanine-substituted aminoacid, were tested in the same biological assays to critically establish the functional relevance of each residue [5]. In vitro microbicidal activity of CDR peptides and selected asd against C. albicans UP 10 (clinical isolate from the fungi collection of the University of Parma) and C. albicans NCPF 3153 (National Collection of Pathogenic Fungi, Bristol, UK) were used for the in vitro experiments.
The microbicidal activity of synthetic CDRs against C. albicans strains was preliminarily evaluated by testing 100 µg/mL of each synthetic peptide by colony forming unit (CFU) assays as previously described [5]. Briefly, 10 µL of a distilled water suspension containing ∼5×10^4/mL germinating yeast cells were added to 90 µL of distilled water containing the synthetic peptide to be tested. Yeast suspensions were incubated at 37°C for 6 h. After incubation, the cell suspensions were plated on Sabouraud dextrose agar, incubated at 30°C and observed for CFU determination after 48–72 hours. Each assay was carried out in triplicate. […] EC50 was calculated by nonlinear regression analysis using Graph Pad Prism 4.01 software, San Diego, CA, USA.

R5 HIV-1 = type: cell-based; conditions: ex vivo, 10 µg/ml, day 10 of culture, p24, mean of 3 determinations
Description: (§1) Briefly, for endogenous HIV-1 replication assays peripheral blood mononuclear cells (PBMCs) from R5 HIV-1-infected patients characterized by high viral RNA titers in plasma and cell-associated viremia were cultured in 96-well plates at 1×10^6 cells/mL in RPMI 1640 medium with 10% fetal calf serum (FCS) and 20 U/mL of rIL-2. Exogenous rIL-2 was added every 3–4 days. Cultures were treated with synthetic mAb CDRs and mAb C7/pc42 H1 asd at 10 µg/mL during the time of culture. Virus production on days 5 and 10 was assayed in the supernatants using ultrasensitive Alliance® HIV-1 p24 ELISA kit (Perkin Elmer); p24 Ag in the supernatants of untreated cultures corresponded to 100% of viral production. For exogenous infection assays, PHA-stimulated PBMCs obtained from healthy individuals were infected with BaL (R5) or IIIB (X4) HIV-1 strain at a median tissue culture infective dose (TCID50) of 500 TCID50/ml. After 2 h of adsorption, the cells were washed, suspended at 2×10^5 cells/ml in medium and cultured in 96-well cultures plates. At time zero of infection, synthetic peptides were added to the cultures at 10 µg/ml and were maintained throughout the experiment. All assays were performed in triplicate. Virus production was assayed 10 days after infection in the supernatants of HIV-1-infected PBMCs by p24 assay.

HIV-1 BaL (R5) = assay: In vitro exogenous HIV-1 infection of PHA-stimulated PBMCs, BaL strain (p24 assay); type: cell-based; conditions: day 10, p24, mean of 3 determinations
Description: as §1

HIV-1 IIIB (X4) = assay: In vitro exogenous HIV-1 infection of PHA-stimulated PBMCs, IIIB strain (p24 assay); type: cell-based; conditions: day 10, p24, mean of 3 determinations
Description: as §1

HUVEC = assay: In vitro Matrigel angiogenesis assay; type: cell-based, human; conditions: peptides at 1 mM, C7/pc42 H2 at 50 µM; 18 h, 37°C; triplicate wells
Description: Matrigel™ Matrix (B&D Biosciences, Bedford, MA, USA) was thawed on ice, added (10 µL/well) to coat 96-well plates, and allowed to polymerize for 1 h at 37°C. Human umbilical vein endothelial cells (HUVEC) (5×10^3cells/well) were added alone or mixed with mAb C7 CDR peptides in 100 µL of RPMI medium supplemented with 0.2% of FCS in each well. All peptides were used at 1 mM, with the exception of mAb C7/pc42 H2 that was used at 50 µM. The plates were incubated at 37°C for 18 h and images were captured at 8× magnification with a Sony Cyber-shot camera coupled to a light microscope. The number of pro-angiogenic structures (closed rings formed at a given time by endothelial cell sprouting) was counted from 3 different wells, and the average value determined in each system, [45]. The assay was repeated at least three times.

Substance: WASTRES [C7 L2, synthetic peptide identical to light chain CDR L2 of mouse mAb C7]
- Anti-Candida activity (%) at 100 µg/mL (Candida albicans UP10): 49.8%
- % inhibitory activity (10 µg/ml), endogenous HIV-1 replication (R5 HIV-1): 38%
- % inhibitory activity (10 µg/ml), exogenous HIV-1 replication, BaL (HIV-1 BaL (R5)): 59%
- % inhibitory activity (10 µg/ml), exogenous HIV-1 replication, IIIB (HIV-1 IIIB (X4)): 4%
- endothelial cell sprouting on Matrigel (HUVEC): inhibited endothelial cell sprouting
